≈ marks a conversion by molar mass, not a printed value. Calls of active or inactive are those of the source. The calls are words filed in the database; no cut-off is given here. A value given as a limit tells only on which side of the number the result lay.

Experimental findings from ChEMBL document CHEMBL1157444, “Sucutiniranes A and B, new cassane-type diterpenes from Bowdichia nitida” (Bioorg Med Chem Lett, 2008) are described below.

In test [1] the test system is Plasmodium falciparum. As to the kind of experiment: Antiplasmodial activity against Plasmodium falciparum 3D7 at 1 ug/mL. The class given is functional, organism-based.
A short description of test [2]: Cytotoxicity against human COLO201 cells. The class given is cell-based. Particulars: COLO 201.
Test [3] has as its system Plasmodium falciparum. As to the kind of experiment: Antiplasmodial activity against Plasmodium falciparum 3D7. The class given is functional, organism-based.

Regarding `CC(=O)O[C@H]1C[C@@H]([C@@H](C)C2=CC(=O)OC2)[C@H](C=O)[C@@]2(C)CCCC(C)(C)[C@H]12`, in the test with Plasmodium falciparum [1], the result was inactive. The 50% inhibitory concentration (IC50) in test [2] is above 100 µg/mL.
Taken in the same sequence, the figures for `CC(=O)O[C@H]1C[C@H]2[C@@H](C)C3=CC(=O)O[C@]3(O)C[C@@H]2[C@@]2(C)CCCC(C)(C)[C@H]12` [SUCUTINIRANE A] were “inactive” and 37.3 µg/mL (≈ 99.1 µM).
Taken in the same sequence, the figures for `CC(=O)O[C@H]1C[C@@H]2[C@H]([C@H](O)[C@]3(C=COC3=O)[C@@H]2C)[C@@]2(C)CCCC(C)(C)[C@H]12` were “inactive” and above 100 µg/mL.
The like results for `CC(=O)O[C@H]1C[C@H]2[C@@H](C)C3=CC(=O)O[C@@H]3C[C@@H]2[C@@]2(C)CCCC(C)(C)[C@H]12` [12-DEOXY-SUCUTINIRANE A] were, in that order, “inactive” and above 100 µg/mL.
`CC(=O)O[C@H]1[C@H](OC(C)=O)[C@H]2C(C)(C)CCC[C@]2(C)[C@H]2Cc3occc3[C@H](C)[C@H]12`: the half-maximal inhibitory concentration (IC50) in test [2] was above 100 µg/mL; in the test with Plasmodium falciparum [3], 0.39 µg/mL (≈ 0.969 µM).
`CC(=O)O[C@H]1C[C@H]2[C@@H](C)c3ccoc3C[C@@H]2[C@@]2(C)CCCC(C)(C)[C@H]12`: the outcome in the test with Plasmodium falciparum [1] was inactive. The compound also displayed a 50% inhibitory concentration (IC50) in test [2] of 86.6 µg/mL (≈ 251 µM).
